The text below walks through data of US7838530B2, “Quinazoline derivatives as antiproliferative agents” (AstraZeneca AB, priority 2003, dated 2010).

In one assay the test system is KB cells. In words: EGFR driven KB cell proliferation assay, Test (b). In kind it is cell-based. Conditions: Homo sapiens, 96 h, EGF 1 ng/ml, incubation for 4 days, MTT. How it is done: This assay measures the ability of a test compound to inhibit the proliferation of KB cells (human naso-pharangeal carcinoma obtained from the American Type Culture Collection (ATCC).
KB cells (human naso-pharangeal carcinoma obtained from the ATCC were cultured in Dulbecco's modified Eagle's medium (DMEM) containing 10% foetal calf serum, 2 mM glutamine and non-essential amino acids at 37° C. in a 7.5% CO2 air incubator. Cells were harvested from the stock flasks using Trypsin/ethylaminediaminetetraacetic acid (EDTA). Cell density was measured using a haemocytometer and viability was calculated using trypan blue solution before being seeded at a density of 1.25×10^3 cells per well of a 96 well plate in DMEM containing 2.5% charcoal stripped serum, 1 mM glutamine and non-essential amino acids at 37° C. in 7.5% CO2 and allowed to settle for 4 hours.
Following adhesion to the plate, the cells are treated with or without EGF (final concentration of 1 ng/ml) and with or without compound at a range of concentrations in dimethylsulfoxide (DMSO) (0.1% final) before incubation for 4 days. Following the incubation period, cell numbers were determined by addition of 50 μl of 3-(4,5-Dimethylthiazol-2-yl)-2,5-diphenyltetrazolium bromide (MTT) (stock 5 mg/ml) for 2 hours. MTT solution was then tipped off, the plate gently tapped dry and the cells dissolved upon the addition of 100 μl of DMSO.
Absorbance of the solubilised cells was read at 540 nm using a Molecular Devices ThermoMax microplate reader. Inhibition of proliferation was expressed as an IC50 value. This was determined by calculation of the concentration of compound that was required to give 50% inhibition of proliferation. The range of proliferation was calculated from the positive (vehicle plus EGF) and negative (vehicle minus EGF) control values.

In assay [1] the target is T1, EGFR tyrosine kinase enzyme (Homo sapiens, UniProt P00533).
T1 construct: Recombinant intracellular fragments of EGFR, erbB2 and erbB4; made in house; host or cells: baculovirus/Sf21 insect cells
T1 sequence (P00533 669-1210 limits assumed): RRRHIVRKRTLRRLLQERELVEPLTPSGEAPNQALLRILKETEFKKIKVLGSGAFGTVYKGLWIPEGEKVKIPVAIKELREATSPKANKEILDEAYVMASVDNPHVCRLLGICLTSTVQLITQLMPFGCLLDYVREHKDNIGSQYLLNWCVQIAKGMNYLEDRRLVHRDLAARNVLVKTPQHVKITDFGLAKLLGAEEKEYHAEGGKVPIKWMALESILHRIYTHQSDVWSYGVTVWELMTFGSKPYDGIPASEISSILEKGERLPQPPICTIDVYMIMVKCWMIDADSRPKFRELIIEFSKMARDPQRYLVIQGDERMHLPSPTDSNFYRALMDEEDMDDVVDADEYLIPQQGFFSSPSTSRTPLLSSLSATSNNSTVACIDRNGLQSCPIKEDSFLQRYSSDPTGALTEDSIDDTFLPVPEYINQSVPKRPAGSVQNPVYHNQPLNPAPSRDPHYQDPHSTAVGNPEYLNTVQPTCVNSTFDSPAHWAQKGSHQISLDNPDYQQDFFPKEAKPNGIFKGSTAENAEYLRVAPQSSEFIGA
Put plainly: Protein tyrosine kinase phosphorylation assay, Test (a). In kind it is biochemical. Conditions: ATP at Km concentration; read-out: IC50 (nM) Test (a) (inhibition of tyrosine kinase protein phosphorylation). How it is done:
This test measures the ability of a test compound to inhibit the phosphorylation of a tyrosine containing polypeptide substrate by EGFR tyrosine kinase enzyme.
Recombinant intracellular fragments of EGFR, erbB2 and erbB4 (accession numbers X00588, X03363 and L07868 respectively) were cloned and expressed in the baculovirus/Sf21 system. Lysates were prepared from these cells by treatment with ice-cold lysis buffer (20 mM N-2-hydroxyethylpiperizine-N′-2-ethanesulfonic acid (HEPES) pH7.5, 150 mM NaCl, 10% glycerol, 1% Triton X-100, 1.5 mM MgCl2, 1 mM ethylene glycol-bis(β-aminoethyl ether) N′,N′,N′,N′-tetraacetic acid (EGTA), plus protease inhibitors and then cleared by centrifugation.
Constitutive kinase activity of the recombinant protein was determined by its ability to phosphorylate a synthetic peptide (made up of a random co-polymer of Glutamic Acid, Alanine and Tyrosine in the ratio of 6:3:1). Specifically, Maxisorb™ 96-well immunoplates were coated with synthetic peptide (0.2 μg of peptide in a 100 μl phosphate buffered saline (PBS) solution and incubated at 4° C. overnight). Plates were washed in PBS-T (phosphate buffered saline with 0.5% Tween 20) then in 50 mM HEPES pH 7.4 at room temperature to remove any excess unbound synthetic peptide. EGFR, ErbB2 or ErbB4 tyrosine kinase activity was assessed by incubation in peptide coated plates for 20 minutes at 22° C. in 100 mM HEPES pH 7.4, adenosine trisphosphate (ATP) at Km concentration for the respective enzyme, 10 mM MnCl2, 0.1 mM Na3VO4, 0.2 mM DL-dithiothreitol (DTT), 0.1% Triton X-100 with test compound in DMSO (final concentration of 2.5%). Reactions were terminated by the removal of the liquid components of the assay followed by washing of the plates with PBS-T.
The immobilised phospho-peptide product of the reaction was detected by immunological methods. Firstly, plates were incubated for 90 minutes at room temperature with anti-phosphotyrosine primary antibodies that were raised in the mouse (4G10 from Upstate Biotechnology). Following extensive washing, plates were treated with Horseradish Peroxidase ([…]) conjugated sheep anti-mouse secondary antibody (NXA931 from Amersham) for 60 minutes at room temperature. After further washing, HRP activity in each well of the plate was measured colorimetrically using 22′-Azino-di-[3-ethylbenzthiazoline sulfonate (6)] diammonium salt crystals (ABTS™ from Roche) as a substrate.
Quantification of colour development and thus enzyme activity was achieved by the measurement of absorbance at 405 nm on a Molecular Devices ThermoMax microplate reader. Kinase inhibition for a given compound was expressed as an IC50 value. This was determined by calculation of the concentration of compound that was required to give 50% inhibition of phosphorylation in this assay. The range of phosphorylation was calculated from the positive (vehicle plus ATP) and negative (vehicle minus ATP) control values.

SMILES strings stand for the structures.

By IC50 is commonly meant the concentration that inhibits the measured activity by half. `COc1cc2ncnc(Nc3cccc(Cl)c3F)c2cc1OC1CCN(C(=O)c2ccno2)CC1` [Compound 1, N-(3-chloro-2-fluorophenyl)-6-{[1-(isoxazol-5-ylcarbonyl)piperidin-4-yl]oxy}-7-methoxyquinazolin-4-amine]: the IC50 in the assay on KB cells was 17 nM; in assay [1], less than 1 nM.

In the case of `COc1cc2ncnc(Nc3cccc(Cl)c3F)c2cc1OC1CCN(C(=O)c2ccccn2)CC1` [Compound 10, N-(3-chloro-2-fluorophenyl)-7-methoxy-6-{[1-(pyridin-2-ylcarbonyl)piperidin-4-yl]oxy}quinazolin-4-amine], the values for the IC50 (in the assay on KB cells; in assay [1]) were 16 nM and 14 nM, respectively.

Regarding `COc1cc2c(Nc3cccc(Cl)c3F)ncnc2cc1OC1CCN(C(=O)Cc2cc(C)no2)CC1` [Compound 33, N-(3-chloro-2-fluorophenyl)-6-methoxy-7-({1-[(3-methylisoxazol-5-yl)acetyl]piperidin-4-yl}oxy)quinazolin-4-amine], the IC50 with KB cells came to 47 nM; in assay [1] it was 15 nM.

On to `COc1cc2c(Nc3cccc(Cl)c3F)ncnc2cc1OC1CCN(C(=O)c2cccnc2)CC1` [Compound 34, N-(3-chloro-2-fluorophenyl)-7-{[1-(pyridin-3-ylcarbonyl)piperidin-4-yl]oxy}-6-methoxyquinazolin-4-amine], for which the IC50 with KB cells amounted to 87 nM; in assay [1] it was 43 nM.

Consider `COc1cc2ncnc(Nc3cccc(Cl)c3F)c2cc1O[C@@H]1CCCN(C(=O)Cc2cccs2)C1` [Compound 60, N-(3-chloro-2-fluorophenyl)-7-methoxy-6-{[(3R)-1-(2-thienylacetyl)piperidin-3-yl]oxy}quinazolin-4-amine], for which the IC50 in the assay with KB cells was 30 nM; in assay [1], less than 1 nM.

Regarding `COc1cc2ncnc(Nc3cccc(Cl)c3F)c2cc1OC1CCN(C(=O)Nc2c(C)noc2C)CC1` [Compound 96, 4-({4-[(3-Chloro-2-fluorophenyl)amino]-7-methoxyquinazolin-6-yl}oxy)-N-(3,5-dimethylisoxazol-4-yl)piperidine-1-carboxamide], the IC50 in the assay with KB cells was 17 nM; in assay [1] it was less than 1 nM.
